Series [1] is described as follows: blood appearance and urinary excretion. In kind it is in vivo. To be noted: within four hours after administration; 240 min.
A further series deals with Proteus morganii 251. The series is described as follows: bacterial inactivation. Conditions: bacterial cells, 4 h. On the procedure:
(§1) These cultures are: Escherichia coli 236, Proteus morganii 251, Proteus morganii 356 and Proteus mirabilis 241. […] In conducting the assay, individual mixtures of the organisms and one of the antibiotics were sampled after 4 hours incubation and assayed for residual antibiotic activity. The procedure is the same assay method as described above against Alcaligenes faecalis MB-9 and A. viscosus MB-12.

Series [2] concerns Proteus morganii 356. The series is described as follows: bacterial inactivation. To be noted: bacterial cells, 4 h. As to the method: as §1
For a further series, the system named is Proteus mirabilis 241. The experiment in a line: bacterial inactivation. Conditions: bacterial cells, 4 h. As to the method:
as §1

The subject of the next series is Escherichia coli 236. The experiment in a line: bacterial inactivation. Conditions: bacterial cells, 4 h. On the procedure:
as §1

In series [3] the test system is Proteus morganii 356. The experiment in a line: mouse protection test, clinical isolate. The series is classed as in vivo, mice. To be noted: subcutaneous route × 2 doses (average of two trials). On the procedure: (§2) Methods: The method employed in this characterization is as follows: Female white Swiss mice, average weight 20-23 grams, were infected intraperitoneally with 3-20 times the number of organisms calculated to be lethal for 50% of the infected control animals (3-20 LD50 doses). At the time of infection and again 6 hours later, therapy was given by the designated route. Controls of the virulence of the culture and the toxicity of the antibiotic for uninfected mice were included in the tests. Seven days after infection the test was considered complete and the amount of the antibiotic (I) that would be required to protect 50% of the infected and treated animals was calculated by the method of Knudsen and Curtis: J. Amer. Stat. Assoc. Vol. 42: page 282 (1947).
Administration was by subcutaneous injection. At the completion of the test period, usually 7 days after administration, the amount of product required to protect 50% of the mice (ED50) from this otherwise fatal injection was calculated:
In addition to the aforementioned in vivo trials of the product, a clinical isolate of Proteus morganii 356 which is resistant to cephalosporins and capable of degrading cephalosporin C, was employed in a mouse protection test performed in the same manner as reported above.

The subject of the next series is cephalosporinases. The experiment in a line: resistance to cephalosporinases / enzymatic degradation. In kind it is biochemical.
The test system of another series is Paracolobactrum arizonae. The series is described as follows: in vivo protection of infected mice. To be noted: subcutaneous route × two doses. On the procedure:
as §2
(§3) The method employed in these studies is the same as described above with regard to the in vivo characterization of 810A. The results of these tests are described below in Table XIb:
(§4) Administration was by subcutaneous injection. At the completion of the test period, usually 7 days after administration, the amount of product required to protect 50% of the mice (ED50) from this otherwise fatal injection was calculated: […]

In the next series the test system is Klebsiella pneumoniae B. The series is described as follows: in vivo protection of infected mice. Conditions: subcutaneous route × two doses. As to the method:
as §2, §3, §4

Series [4] deals with Diplococcus pneumoniae 2400. The experiment in a line: in vivo protection of infected mice. To be noted: subcutaneous route × two doses. As to the method: as §2, §3, §4
The test system of another series is Klebsiella pneumoniae AD. The series is described as follows: in vivo protection of infected mice. Conditions: subcutaneous route × two doses. On the procedure:
as §2, §3, §4

The subject of the next series is Pasteurella multocida. The experiment in a line: in vivo protection of infected mice. Conditions: subcutaneous route × two doses. On the procedure: as §2, §3, §4
Series [5] deals with Salmonella schottmuelleri. The experiment in a line: in vivo protection of infected mice. Conditions: subcutaneous route × two doses. On the procedure: as §2, §3, §4
The next series relates to Proteus mirabilis. The experiment in a line: in vivo protection of infected mice. Conditions: subcutaneous route × two doses. As to the method:
as §2, §3, §4

For another series, the system named is Proteus morganii 3202. The series is described as follows: in vivo protection of infected mice. Conditions: subcutaneous route × two doses. On the procedure: as §2, §3, §4
The subject of the next series is Proteus vulgaris. The series is described as follows: in vivo protection of infected mice. Conditions: subcutaneous route × two doses. On the procedure:
as §2, §3, §4

The next series concerns Aerobacter aerogenes. The series is described as follows: in vivo protection of infected mice. To be noted: subcutaneous route × two doses. On the procedure:
as §2, §3, §4

In a further series the test system is Escherichia coli. The series is described as follows: in vivo protection of infected mice. To be noted: subcutaneous route × two doses. As to the method: as §2, §3, §4
A further series relates to Salmonella typhosa. The experiment in a line: in vivo protection of infected mice. To be noted: subcutaneous route × two doses. As to the method: as §2, §3, §4
Series [6] has as its system Vibrio percolans (MB-1272). The experiment in a line: disc-plate assay using Vibrio percolans. To be noted: Example 9 broth after 4 days; 0.5 inch discs.
The test system of another series is Salmonella. The experiment in a line: activity against Salmonella (in words). In kind it is cell-based.
The test system of series [7] is Alcaligenes viscosus (MB-12). Conditions: 4 h.
The test system of series [8] is Alcaligenes faecalis (MB-9). Conditions: 4 h.
For series [9], the system named is Alcaligenes faecalis (MB-9). The experiment in a line: bacterial inactivation by washed cells.
Series [10] can be described thus: isoelectric point and pH stability. In kind it is physicochemical.
Series [11] deals with gram-negative and gram-positive bacteria. The series is described as follows: antibacterial activity (in words). In kind it is cell-based.
In series [12] the test system is gram-negative and gram-positive organisms. The series is described as follows: in vivo activity against infections (in words). Set-up: species or system mice. To be noted: for oral protection against infections: given orally; for in vivo gram-negative potency compared with cephalothin: in general. As to the method: as §2
The method employed in these studies is the same as described above with regard to the in vivo characterization of 810A.

The test system of series [13] is Proteus vulgaris (MB-838). The series is described as follows: disc-plate assay using Proteus vulgaris. In kind it is cell-based. Conditions: read-out: concentration giving a 25 mm. zone.

“Also recorded” adds a separate entry of the source.

Consider `CO[C@@]1(NC(=O)CCC[C@@H](N)C(=O)O)C(=O)N2C(C(=O)O)=C(COC(N)=O)CS[C@@H]21` [Antibiotic 842A], for which, in series [1], the “eliminated in the urine” value is “approximately 80%”. The percent inactivation with Proteus morganii 251 is listed as 80%; in the series with Proteus morganii 356 [2], 69%; with Proteus mirabilis 241 it was 5%; with Escherichia coli 236, 38%. Also, the ED50 with Proteus morganii 356 [3] worked out at 273 µg; with Paracolobactrum arizonae, 125 µg; in the series with Klebsiella pneumoniae B, 125 µg; in [4], 566 µg; with Klebsiella pneumoniae AD it was 125 µg; in the series on Pasteurella multocida, 57 µg. The ED50 was 103 µg in series [5]; 276 µg in the series on Proteus mirabilis; 276 µg in the series on Proteus morganii 3202; 51 µg in the series with Proteus vulgaris; 49 µg with Aerobacter aerogenes; 200 µg in the series on Escherichia coli. This compound also yielded an ED50 in the series with Salmonella typhosa of 34 µg. In the series with cephalosporinases, the resistance to cephalosporinases result is recorded as “a greater resistance to cephalosporinases”. Also, the “resistance to enzymatic degradation compared with cephalosporin C” value with cephalosporinases is listed as “more resistant to enzymatic degradation than cephalosporin C”. The same compound showed an inhibition zone in series [6] of 33 mm. Moreover, the “activity against Salmonella species” value with Salmonella is “exhibits activity against Salmonella schottmuelleri 3010, S. gallinarum and S. typhosa”. Moreover, the results for the “Percent Inactivation After Incubation With Washed Bacterial Cells” value in series [7] and in series [8] were 54.4% and 0%, respectively. For the same compound, in series [9] (A. faecalis, A. viscosus, E. coli 236, P. morganii 251 and 236 (so in the source), P. mirabilis 241), the “resistance to inactivation compared with cephalosporin C” value was “more resistant than cephalosporin C”. In series [9] (compared with cephalosporin C, cephaloridine and cephalothin, certain microorganisms), the “stability to bacterial inactivation” value is “more stable than the latter against certain microorganisms”. The stability result in series [10] (above pH 7) is “unstable”; in series [10] (above pH 9.0) it was “unstable”; in series [10] (pH 1.5) it was “relatively stable”; in series [10] (pH 1.5, listed as 842A), “stable”. Besides, the “antibacterial effect (in words)” value in series [11] is listed as “enhanced activity against gram-negative microorganisms”. Besides, the bactericidal action entry in series [11] is given as “bactericidal”. The development of resistance entry in series [11] is given as “resistance to it develops slowly”. In addition, the “growth inhibition of gram-negative bacteria” value in series [11] (in vitro) is “inhibits the growth of the following gram-negative bacteria: Escherichia coli, Proteus vulgaris, Alcaligenes faecalis, Brucella bronchiseptica, Salmonella gallinarum, Vibrio percolans and Xanthomonas vesicatoria”. In addition, the “growth inhibition of gram-positive bacteria” value in series [11] (in vitro) was “inhibits the growth of the following gram-positive bacteria: Staphylococcus aureus, Sarcina lutea and Bacillus subtilis”. The “oral protection against infections” value in [12] was “protects against infections due to Paracolobactrum arizonae 3270, Proteus vulgaris 1810, and Salmonella schottmuelleri 3010”. In addition, the “in vivo gram-negative potency compared with cephalothin” value in [12] was “greater than cephalothin”; in [12] (listed as 842A), “generally increased gram-negative effect and an increased potency when compared to cephalothin”. In addition, the “in vivo activity / protection against infections” value in series [12] (mouse, in vivo) is “effectiveness in vivo on Proteus morganii and an effectiveness against the following gram-negative bacteria: Escherichia coli, Proteus vulgaris, Proteus mirabilis, Proteus morganii, Salmonella schottmuelleri, Klebsiella pneumoniae AD, Klebsiella pneumoniae B, and Paracolobactrum arizonae; also recorded: protects against infection with three species of Proteus, two of Salmonella, one strain of Escherichia coli, two of Klebsiella and also against Paracolobactrum arizonae, Aerobacter aerogenes, Pasteurella multocida and Diplococcus pneumoniae 2400”. In series [12] (subcutaneously to mice), the “protection from gram-negative infection compared with known antibiotics” value is “generally more active than cephalothin; also recorded: approximately equal to cephaloridine, ampicillin and chloromycetin”.
As for `COC(=Cc1ccc(OS(=O)(=O)O)cc1)C(=O)OCC1=C(C(=O)O)N2C(=O)[C@](NC(=O)CCC[C@@H](N)C(=O)O)(OC)[C@H]2SC1` [Ic, 7β-(D-5-amino-5-carboxyvaleramido)-3-(α-methoxy-p-sulfooxycinnamoyloxymethyl)-7-methoxy-3-cephem-4-carboxylic acid], the “resistance to enzymatic degradation compared with cephalosporin C” value with cephalosporinases is on record as “more resistant to enzymatic degradation than cephalosporin C”. Moreover, the IC (25 mm zone) in series [13] was found to be 88 µg/mL. In addition, in series [12] (administered intraperitoneally), the effectiveness against infections entry is “effective against a variety of gram-negative and gram-positive infections”. In series [12], the “oral protection against infections” value is recorded as “protects against infections due to Proteus vulgaris”.

These data come from patent US4036696A, “Preparation of antibiotics by fermentation” (priority 1976, dated 1977).
